Measured values from patent publication EP0812190B1 (priority 1993, dated 1995).
Structures can show the parent of a compound that is named as a salt. Where two headings read alike, the source gives them in different places.

Legend:
[1] = system: MPTP-induced striatal dopamine depletions; assay: Suppression of MPTP-induced dopaminergic toxicity (striatal DA and DOPAC); assay type: in vivo, mice; conditions: striatum
Method: Brains were removed and corpora striata dissected on an ice-cold glass plate and frozen on dry ice. Striatal tissues were homogenized in 0.1 M perchloric acid, and deproteinized aliquots containing dihydroxybenzylamine as an internal standard were assayed for dopamine and its major metabolite 3,4-dihydroxy-phenylacetic acid (DOPAC) using HPLC with electrochemical detection.

[2] = Comparative stability: visual inspection of color and form; assay type: physicochemical
Method: Comparative stability studies were carried out under sets of several accelerating conditions: I) heating at 80°C for 72, 96 or 144 hours; and II) reflux in isopropanol for 30 hours. The degradation products developed were measured by HPLC and confirmed by TLC. The results are presented in Table 9 with the relative retention time (relative to the PAI peak; RRT) as an area percentage relative to total integrated peak area.
The salts were submitted to visual inspection of color and form.

MAO-B [3] = target: T1, MAO-B (Rattus norvegicus, UniProt P19643); assay: Rat brain MAO inhibition by propargylamines (Table IA), MAO-B; assay type: biochemical; parameters: in a rat brain preparation of MAO; from tissue; host or cells: rat brain preparation; conditions: ratio MAO-A / MAO-B for one epimer
T1 sequence (P19643 1-520): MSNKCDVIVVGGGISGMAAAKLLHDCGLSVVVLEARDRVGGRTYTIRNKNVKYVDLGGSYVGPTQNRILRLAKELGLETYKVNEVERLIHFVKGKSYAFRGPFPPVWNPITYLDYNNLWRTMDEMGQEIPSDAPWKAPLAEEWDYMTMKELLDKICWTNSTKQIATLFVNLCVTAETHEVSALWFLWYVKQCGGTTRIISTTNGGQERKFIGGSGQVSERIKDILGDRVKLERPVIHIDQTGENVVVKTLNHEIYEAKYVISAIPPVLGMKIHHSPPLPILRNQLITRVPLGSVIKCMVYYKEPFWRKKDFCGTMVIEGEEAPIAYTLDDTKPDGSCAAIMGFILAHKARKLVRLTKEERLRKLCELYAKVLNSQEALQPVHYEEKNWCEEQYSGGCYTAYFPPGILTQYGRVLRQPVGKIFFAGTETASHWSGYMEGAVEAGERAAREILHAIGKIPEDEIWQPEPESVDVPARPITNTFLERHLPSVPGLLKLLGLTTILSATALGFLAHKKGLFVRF

[4] = Thermo-gravimetric analysis of PAI salts; assay type: physicochemical; conditions: 10°C/min
Method: (§1) The melting range was measured with an automatic apparatus (Mettler FP 80) and thermo-gravimetric analysis was performed on a Mettler TA 3000 system at a rate of 10°C/min in the applicable range. […] The pH was measured in a 1% aqueous solution of the PAI salts.

[5] = system: heart rate, blood pressure, cardiovascular effects of tyramine; conditions: cited from earlier work
MAO-A = target: T2, MAO-A (Rattus norvegicus, UniProt P21396); assay: Inhibition of MAO activity in vivo, acute treatment, MAO-A; parameters: MAO activity determined in brain and liver using the general technique described above; from tissue; host or cells: brain and liver of treated rats; conditions: dose producing 50% inhibition, rat
T2 sequence (P21396 1-526): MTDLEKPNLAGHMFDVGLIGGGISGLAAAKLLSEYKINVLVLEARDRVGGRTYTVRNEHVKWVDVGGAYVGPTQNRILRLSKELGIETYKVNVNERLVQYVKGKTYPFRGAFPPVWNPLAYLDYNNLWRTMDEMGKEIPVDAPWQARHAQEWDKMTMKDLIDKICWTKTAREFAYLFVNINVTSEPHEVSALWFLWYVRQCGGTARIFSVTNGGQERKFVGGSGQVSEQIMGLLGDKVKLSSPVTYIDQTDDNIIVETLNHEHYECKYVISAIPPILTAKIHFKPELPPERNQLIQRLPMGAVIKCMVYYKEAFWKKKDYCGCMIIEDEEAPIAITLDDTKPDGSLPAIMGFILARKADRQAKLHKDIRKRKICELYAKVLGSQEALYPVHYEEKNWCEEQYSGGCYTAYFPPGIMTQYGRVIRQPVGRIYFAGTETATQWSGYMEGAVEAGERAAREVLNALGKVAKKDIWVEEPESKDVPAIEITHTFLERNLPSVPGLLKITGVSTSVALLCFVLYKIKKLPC

MAO-B [6] = target: T1, MAO-B; assay: in vivo; conditions: rat
Method: Groups of three rats were used for each dose level of inhibitor, and MAO activity determined in brain and liver using the general technique described above. The amount of protein in each incubation was determined using the Folin-Lowry method, and enzyme activity calculated as nmol of substrate metabolized per hour of incubation for each mg of protein. Activity of MAO in tissues from animals treated with inhibitors was expressed as a percentage of the enzyme activity in a group of control animals administered vehicle (water for oral administration, 0.9% saline for ip injection) and killed as above.

[7] = pH of 1% aqueous solution of PAI salts; assay type: physicochemical
Method: as §1

[8] = system: NMDA-induced cell death of cerebellum cells; assay: cells; conditions: Rattus norvegicus, 24 h
Method: Procedures: Cultures of mechanically dissociated neonatal rat cerebellum. […] The cerebella are then dissociated after 20-25 passages through a sterile 13 gauge, 10 cm long stainless steel needle attached to a 5 ml syringe with an inserted 45 µm pore size nylon sieve. The dissociated cells are centrifuged at 200g for 5 minutes, the supernatant discarded and the cells resuspended in enriched medium. The cell viability is determined by the trypan blue exclusion test. […] After 4 days in culture, the media are replaced with media containing the desired test compounds. Experiments are done in duplicate and repeated 2 or 3 times. […] Nerve cell survival is evaluated by phase contrast microscopy and trypan blue staining after 24 h.

guinea-pig ileum [9] = assay: tissue or blood; conditions: Cavia porcellus, read-out: Percent relaxation
guinea-pig ileum [10] = system: guinea-pig ileum
[11] = system: amphetamine-induced stereotype behavior; conditions: control senescent rats; 0.5 mg/kg/day in drinking water; lateral head movements over 1 minute, 45 min after amphetamine 0.5 mg/kg s.c.
Method: The extent of this behavior is rated in accordance with the number of lateral head movements over a period of 1 minute.
Following that, amphetamine was injected s.c. at a dose of 0.5 mg/kg. 45 minutes later, lateral head movements were counted.

guinea-pig ileum [12] = assay: tissue or blood; conditions: Cavia porcellus, read-out: Percent relaxation; remark: listed apart in the source
rabbit jejunum = assay: Tyramine potentiation in rabbit jejunum preparation
[13] = system: α-MpT-induced hypokinesia; assay: Reversal of α-MpT-induced hypokinesia in rats; assay type: in vivo; conditions: α-MpT 100 mg/kg i.p. alone
Method: The drug α-MpT is assumed to inhibit the formation of L-DOPA from tyrosine, and consequently the formation of dopamine itself. Lack of CNS dopamine is expressed as hypoactivity. Six month-old male Wistar rats (from Harlan Orkack, UK) were pretreated with saline, [R] […] Two hours later they received i.p. α-MpT at a dose of 100 mg/kg in 0.3-0.5 mL. Controls received saline. Following this, motor activity was recorded in a computerized activity cage for the duration of 10 hours. […] (+)PAI Mesylate at 2 mg/kg.

[14] = system: haloperidol-induced catalepsy
Method: (+)PAI mesylate, or racemic-PAI mesylate. All drugs were administered i.p. in a volume of 0.2 mL. Two hours later, haloperidol was injected s.c. at a dose of 6mg/kg in a volume of 0.1-0.2 mL. Motor coordination tests were made at 3 hours after giving haloperidol, that is, 5 hours after administering the presumed protective drugs.
Motor coordination tests and rigidity were quantified according to three different parameters: (a) ability to walk the length of a horizontal rod, 80 cm-long; (b) ability co climb down, face down, a vertical rod, 80 cm-long; (c) duration of immobility in an unnatural sitting posture whereby the abdomen of the mouse is pressed against a "wall." Full performance as in haloperidol-untreated mice is given the score of 4 in each test, or a total of 12 in all tests. Poor performance is given a score from 1 to 3.

[15] = comparative animal tests versus (-)-deprenyl

Molecule: CN1CC=C(c2ccccc2)CC1 [MPTP, 1-Methyl-phenyl-1,2,3,6-tetrahydropyridine]
- DA ([1]; MPTP-HCl 30 mg/kg s.c. alone): 53.1±6.2 ng/mg protein
- DOPAC ([1]; MPTP-HCl 30 mg/kg s.c. alone): 3.2±0.3 ng/mg protein

Molecule: phosphate
- appearance ([2]; 80°C/72h): brownish powder
- appearance ([2]; 80°C/144h): brown powder
- appearance ([2]; reflux in iPrOH/30h): brown powder

Molecule: chloride
- appearance ([2]; 80°C/72h): white powder
- appearance ([2]; 80°C/144h): white powder
- appearance ([2]; reflux in iPrOH/30h): off white powder

Molecule: C#CCN(C)C1CCCc2ccccc21 (single isomer, unassigned) [2-MPAI +, N-Methyl-N-propargyl-1-aminotetralin]
- RELATIVE POTENCY A/B (MAO-B [3]): 8.8

Molecule: maleate
- Solubility (water): NLT 1000 mg/ml
- appearance ([2]; 80°C/72h): brown melted
- appearance ([2]; 80°C/96h): brown
- appearance ([2]; reflux in iPrOH/30h): brown melted
- %Wt. loss [4]: 0.1%

Molecule: C#CCNC1CCc2ccccc21 (racemic) [Rac, N-propargyl-1-aminoindan, reference compound]
- blood pressure [5, 15]: does not increase blood pressure
- tachycardia [5, 15]: no significant tachycardia
- IC-50 MAO-A I.P. BRAIN (MAO-A; i.p., 1h): 2.5 mg/kg
- IC-50 MAO-A I.P. LIVER (MAO-A; i.p., 1h): 5 mg/kg
- IC-50 MAO-A P.O. BRAIN (MAO-A; p.o., 2h): >5 mg/kg
- IC-50 MAO-A P.O. LIVER (MAO-A; p.o., 2h): >5 mg/kg
- IC-50 MAO-B P.O. BRAIN (MAO-B [6]; dose producing 50% inhibition, p.o., 2h): 0.29 mg/kg
- ED50 (MAO-B [6]; ip, 1 h, read-out: IC-50 MAO-B I.P. BRAIN): 0.22 mg/kg
- ED50 (MAO-B [6]; ip, 1 h, read-out: IC-50 MAO-B I.P. LIVER): 0.11 mg/kg
- ED50 (MAO-B [6]; po, 2 h, read-out: IC-50 MAO-B P.O. LIVER): 0.09 mg/kg

Molecule: tartarate
- pH [7]: 5.5
- %Wt. loss [4]: LT 0.1%

Molecule: NCCCNCCCCNCCCN [Spermine, reference compound]
- inhibition at 0.01 µM ([8]; read-out: Percent Protection): 65%
- viability at 0.01 µM ([8]; read-out: Surviving Cells): 75%

Molecule: tosylate
- pH [7]: 4.4
- Solubility (saturated salt water solution): 60 to 70 mg/mL
- %Wt. loss [4]: LT 0.1%

Molecule: C#CCNC1CCc2ccccc21 (racemic) [racemic PAI·HCl, Racemic N-propargyl-1-aminoindan hydrochloride]
- potentiation of the cardiovascular effects of tyramine ([5]; in vivo): does not potentiate the cardiovascular effects of tyramine

Molecule: fumarate
- pH [7]: 3.5
- Solubility (water): 95 mg/mL
- %Wt. loss [4]: 0.2%

Molecule: C#CCN[C@H]1CCc2ccccc21 [[S](-)PAI, S-(-)-N-propargyl-1-aminoindan, reference compound]
- inhibition at 60 µM (guinea-pig ileum [9]): 60 to 70%
- inhibition at 300 µM (guinea-pig ileum [9]): 100%
- DOPAC ([1]; drug alone (PAI isomers […] i.p., deprenyl 5 mg/kg i.p.)): 7.5±0.2 ng/mg protein
- DA ([1]; drug alone (PAI isomers […] i.p., deprenyl 5 mg/kg i.p.), Mean±S.E.M.): 174.0±4.8 ng/mg protein
- DA ([1]; pretreatment one hour before MPTP-HCl 30 mg/kg s.c. (PAI isomers […] i.p., deprenyl 5 mg/kg i.p.), 5 days later): 53.4±6.9 ng/mg protein
- DOPAC ([1]; pretreatment one hour before MPTP-HCl 30 mg/kg s.c., 5 days later): 7.0±0.6 ng/mg protein
- gram-tension (guinea-pig ileum [10]; bethanechol 0.8 µM, 400 µM PAI HCl enantiomer): 0 gram-tension
- gram-tension (guinea-pig ileum [10]; bethanechol 2 µM, 400 µM enantiomer): 0 gram-tension
- gram-tension (guinea-pig ileum [10]; bethanechol 4 µM, 400 µM enantiomer): 0 gram-tension
- gram-tension (guinea-pig ileum [10]; bethanechol 20 µM, 400 µM enantiomer): 1.2 gram-tension
- gram-tension (guinea-pig ileum [10]; bethanechol 80 µM, 400 µM enantiomer): 2.6 gram-tension
- gram-tension (guinea-pig ileum [10]; bethanechol 200 µM, 400 µM enantiomer): 2.6 gram-tension
- Stereotype Behavior Rating [11]: totally inactive
- inhibition at 2 µM (guinea-pig ileum [12]): 11%
- inhibition at 30 µM (guinea-pig ileum [12]): 33%
- inhibition at 40 µM (guinea-pig ileum [12]): 36%
- inhibition at 200 µM (guinea-pig ileum [12]): 90%
- inhibition at 400 µM (guinea-pig ileum [12]): 98%
- inhibition at 1000 µM (guinea-pig ileum [12]): 100%
- Percent relaxation (rabbit jejunum; PAI HCl enantiomer alone 0.2-4.0 µM): 0%
- Percent relaxation (rabbit jejunum; tyramine 40 µM after 0.2 µM PAI HCl enantiomer): 0%
- Percent relaxation (rabbit jejunum; tyramine 40 µM after 2 µM PAI HCl enantiomer): 35%
- Percent relaxation (rabbit jejunum; tyramine 40 µM after 40 µM PAI HCl enantiomer): 33-50%

Molecule: C#CCNC1CCCc2ccccc21 (centres unmarked) [1-PAT S, N-propargyl-1-aminotetralin]
- RELATIVE POTENCY A/B (MAO-B [3]): 76

Molecule: sulphate
- appearance ([2]; 80°C/72h): off white powder
- appearance ([2]; 80°C/144h): off white powder
- appearance ([2]; reflux in iPrOH/30h): brown powder

Molecule: CC(N)(Cc1ccc(O)cc1)C(=O)O (stereo not drawn) [α-Mpt, α-methyl-p-tyrosine, reference compound]
- % of control [13]: 51%
- Score (total motor activity, 10 hours) [13]: 8,108±810

Molecule: O=C(CCCN1CCC(O)(c2ccc(Cl)cc2)CC1)c1ccc(F)cc1 [Haloperidol, reference compound]
- Score+SE ([14]; haloperidol 6mg/kg s.c. alone, 3 hours after): 6.6±0.3
- Score+SE ([14]; haloperidol 6mg/kg s.c. alone, 3 hours after, listed as haloperidol): 6.6±0.03

Molecule: C#CCNC1CCc2ccccc21 (racemic) [Rac PAI Mesylate, reference compound]
- Score+SE ([14]; 5.0 mg/kg i.p., listed as Racemic PAI mesylate): not active

Molecule: C#CCN(C)C1CCCc2ccccc21 (single isomer, unassigned) [2-MPAI -, N-Methyl-N-propargyl-1-aminotetralin]
- RELATIVE POTENCY A/B (MAO-B [3]): 0.5

Molecule: NCCc1ccc(O)cc1 [Tyramine]
- Percent relaxation (rabbit jejunum; tyramine alone 40 µM): 0%

Molecule: NC[C@H](O)c1ccc(O)c(O)c1 [Norepiniphrine]
- Percent relaxation (rabbit jejunum; 0.002 µM): 100%

Molecule: C#CCNC1CCCc2ccccc21 (centres unmarked) [1-PAT R, N-propargyl-1-aminotetralin]
- RELATIVE POTENCY A/B (MAO-B [3]): 10
